The values below come from patent US20080031866A1, “METHOD FOR MODULATING THE PHARMACOKINETICS AND METABOLISM OF A THERAPEUTIC AGENT” (priority 2006, published 2008).

In general, solubility refers to the dissolved amount per volume that the medium holds.

For series [1], the system named is β-glucuronidase derived from E. Coli. Put plainly: In vitro incubation of Glu A and Glu B with β-glucuronidase. The format is in vitro ADME. The following applies: for Glucuronide remaining: 500 μM glucuronide, β-glucuronidase, 37° C.; for Stability in control samples without β-glucuronidase: control incubation, no enzyme. As to the method:
β-glucuronidase derived from E. Coli, glucurase at a concentration of 5,000 units/ml and bovine serum albumin were obtained from Sigma (St. Louis, Mo.). Glu A and Glu B were incubated at a concentration of 500 μM with β-glucuronidase ([…]) in 100 mM potassium acetate buffer solution in a 0.5 ml filter tube. The incubations were run in triplicate.
To each filter tube, 65 μl of 100 mM potassium acetate buffer, 5 μl of bovine serum albumin, and 100 μl of glucurase were added (100 mM potassium acetate was added to the control wells). The pH was adjusted to either pH 5.0 using 1N potassium hydroxide. 10 μl of 10 mM GluA or GluB were then added and the filter tubes were incubated for 30 minutes, 60 minutes or 18 hours at 37° C. Following incubation 20 μl of acetonitrile was added to the filter tubes and the filter tubes were centrifuged. The resulting filtrate was then analyzed by HPLC.
Glu A (500 μM) and Glu B (500 μM) were incubated with β-glucuronidase at 37° C. in pH 5.0 and pH 7.4 buffers. The pH 7.4 buffer is representative of the in vivo pH range in the GI tract. The results of each treatment are shown in Tables 5 (pH 5.0) and Table 6 (pH 7.4).
Glu A was prepared fresh in these experiments. A time-dependent incubation of Glu A and Glu B was carried out for 2, 4 and 6 hours.

A further series is described as follows: Stability in DMSO. The format is physicochemical. As to conditions: especially after freezing and thawing.
The nature of another series: Solubility. The format is physicochemical.
Series [2] is described as follows: Absorption (physicochemical properties).

Converted amounts (≈) assume the structure as drawn. Like-named read-outs stand apart in the source and are kept apart here. Where only a bound is given, the exact number is not on record here.

On to `COc1cc2c(cc1OC)-c1n[nH]c(N(c3cccc(F)c3)[C@H]3O[C@@H](C(=O)O)[C@H](O)[C@@H](O)[C@@H]3O)c1C2` [Cpd 1-GluA], for which the Glucuronide remaining in series [1] (pH 5.0, 0 hr) was 100% Glu-A; in series [1] (pH 5.0, 0.5 hrs), 60% Glu-A; in series [1] (pH 5.0, 1 hr), 34% Glu-A; in series [1] (pH 5.0, 18 hrs), 0% Glu-A; in series [1] (pH 7.4, 0 hr), 100% Glu-A; in series [1] (pH 7.4, 2 hrs) it was 67% Glu-A. Further, the Glucuronide remaining was 48% Glu-A in series [1] (pH 7.4, 4 hrs) and 23% Glu-A in series [1] (pH 7.4, 6 hrs). The “Stability in control samples without β-glucuronidase” value in series [1] is given as “stable”. In the series “Stability in DMSO”, the “Stability in DMSO” value is given as “relatively unstable”.

In the case of `COc1cc2c(cc1OC)-c1n[nH]c(Nc3cccc(F)c3)c1C2` [Compound 1, (6,7-dimethoxy-2,4-dihydro-indeno[1,2-c]pyrazol-3-yl)-(3-fluoro-phenyl)-amine], the solubility is less than 6 µg/mL in the series “Solubility” (aqueous media, aqueous buffer, pH 3.0, read-out: Solubility in aqueous media); less than 2 µg/mL in “Solubility” (aqueous media, aqueous buffer, pH 7.0, read-out: Solubility in aqueous media); 10000 µg/mL (≈ 30.7 mM) in the series “Solubility” (aqueous with cosolvent or surfactant or cyclodextrin, 20/80-weight% Tween 80/DI water, read-out: Solubility); 7500 µg/mL (≈ 23.1 mM) in “Solubility” (neat PEG-400, organic solvent or mixture, read-out: Solubility). For the same compound, the Absorption in series [2] came out at 1.3e-05 cm/s.

On to `COc1cc2c(cc1OC)-c1nn(C3OC(C(=O)O)C(O)C(O)C3O)c(Nc3cccc(F)c3)c1C2` (stereo in doubt) [Cpd 1-GluB], for which the Glucuronide remaining in series [1] (pH 5.0, 0 hr) is 100% Glu-B; in series [1] (pH 5.0, 0.5 hrs), 100% Glu-B; in series [1] (pH 5.0, 1 hr), 100% Glu-B; in series [1] (pH 7.4, 0 hr) it was 100% Glu-B; in series [1] (pH 7.4, 2 hrs), 100% Glu-B; in series [1] (pH 7.4, 4 hrs), 100% Glu-B. Also, the “Stability in control samples without β-glucuronidase” value in series [1] is on record as “stable”.
